Test results taken from patent publication US11091419B2, “Preparation and purification of biphenyldicarboxylic acids” (ExxonMobil Chemical Patents Inc., priority 2017, dated 2021).

Experiment: solubility versus temperature in water (FIG. 2)
Type: physicochemical
Settings: read from FIG. 2

water solubility (BPDA loading in the aqueous phase) (320° C.): ca. 10 wt %
water solubility (BPDA loading in the aqueous phase) (340° C.): ca. 20 wt %
SMILES: O=C(O)c1ccc(-c2ccc(C(=O)O)cc2)cc1 [4,4′-BPDA, 4,4′-biphenyldicarboxylic acid]
